Measured values published in patent publication US11584747B2, “Substituted pyridopyrimidinonyl compounds useful as T cell activators” (BRISTOL-MYERS SQUIBB COMPANY, priority 2019, dated 2023).
Read-outs that look alike come from different tables or passages of the source.

Columns and labels:
human DGKζ = human DGKζ (Homo sapiens (Human), UniProt Q13574); assay: DGKζ LIPGLO assay (extruded liposome substrate, ADP-Glo luminescence); format: biochemical
human DGKα = human DGKα (Homo sapiens (Human), UniProt P23743); assay: DGKα ADPGLO assay (detergent/lipid micelle substrate); format: biochemical
Sequence of human DGKα (P23743 whole entry, looked up, the tested form may be a part): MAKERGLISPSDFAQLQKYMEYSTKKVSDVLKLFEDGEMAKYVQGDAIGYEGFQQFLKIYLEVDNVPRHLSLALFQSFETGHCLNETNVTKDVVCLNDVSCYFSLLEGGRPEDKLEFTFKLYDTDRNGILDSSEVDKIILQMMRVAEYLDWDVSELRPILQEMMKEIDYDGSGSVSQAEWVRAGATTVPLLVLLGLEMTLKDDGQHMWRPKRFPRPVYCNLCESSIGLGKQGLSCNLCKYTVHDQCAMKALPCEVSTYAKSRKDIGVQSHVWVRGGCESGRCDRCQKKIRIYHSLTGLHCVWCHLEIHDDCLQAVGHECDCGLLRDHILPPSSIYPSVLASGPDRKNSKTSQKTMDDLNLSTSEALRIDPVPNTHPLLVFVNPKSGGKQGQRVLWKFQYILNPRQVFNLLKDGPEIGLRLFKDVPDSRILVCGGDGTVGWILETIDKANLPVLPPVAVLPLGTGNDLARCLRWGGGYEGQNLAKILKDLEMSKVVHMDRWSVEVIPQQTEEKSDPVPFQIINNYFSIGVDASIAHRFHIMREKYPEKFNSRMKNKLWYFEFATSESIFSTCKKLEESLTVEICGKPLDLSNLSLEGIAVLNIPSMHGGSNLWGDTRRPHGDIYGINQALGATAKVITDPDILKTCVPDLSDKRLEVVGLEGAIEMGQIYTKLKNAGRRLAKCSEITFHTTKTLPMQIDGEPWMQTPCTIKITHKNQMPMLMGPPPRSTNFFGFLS
Experimental: DGK Alpha ADPGLO (Truncated) IC50 (uM)
The detergent/lipid micelle was prepared by combining 15 g phosphatidylserine (Avanti 840035P) and 1 g diacylglycerol (8008110) and dissolving into 150 mL chloroform in a 2 L round bottom flask. Chloroform was removed under high vacuum by rotary evaporation. […] The lipid/detergent solution was split into 5 mL aliquots and stored at −80° C.

[1] = system: human venous whole blood (IFN-γ); assay: Human whole blood IFN-γ assay; format: cell-based
Experimental: Human venous whole blood (22.5 μL per well), obtained from healthy donors, was pre-treated with compounds for one hour at 37° C. in a humidified 95% air/5% CO2 incubator. The blood was stimulated with 2.5 μL anti-human CD3 and anti-CD28 mAb at a final concentration of 1 μg/mL each for 24 hours at 37° C. IFN-γ in the supernatants was measured using AlphLISA kit (Cat #AL217).

[2] = liposome assay, read-out: DGK zeta LIPGLO IC50
[3] = truncated DGK alpha, read-out: DGK alpha ADPGLO (Truncated) IC50
[4] = whole blood, normalized to 3 μM reference compound as 100% activation, read-out: IFN-γ Whole Blood Normalized EC50
[5] = liposome (LIPGLO) assay, read-out: DGK zeta (liposome assay) IC50
[6] = ADPGLO assay, read-out: DGK alpha ADPGLO IC50
[7] = human whole blood, anti-CD3 plus anti-CD28 stimulation, 24 hours, read-out: IFN-γ Whole Blood EC50
[8] = Homo sapiens, whole blood, normalized to 3 μM reference compound as 100% activation, read-out: IFN-γ Whole Blood Normalized EC50

Sequence of human DGKζ (Q13574 other isoform, or with tags, fused parts or gaps): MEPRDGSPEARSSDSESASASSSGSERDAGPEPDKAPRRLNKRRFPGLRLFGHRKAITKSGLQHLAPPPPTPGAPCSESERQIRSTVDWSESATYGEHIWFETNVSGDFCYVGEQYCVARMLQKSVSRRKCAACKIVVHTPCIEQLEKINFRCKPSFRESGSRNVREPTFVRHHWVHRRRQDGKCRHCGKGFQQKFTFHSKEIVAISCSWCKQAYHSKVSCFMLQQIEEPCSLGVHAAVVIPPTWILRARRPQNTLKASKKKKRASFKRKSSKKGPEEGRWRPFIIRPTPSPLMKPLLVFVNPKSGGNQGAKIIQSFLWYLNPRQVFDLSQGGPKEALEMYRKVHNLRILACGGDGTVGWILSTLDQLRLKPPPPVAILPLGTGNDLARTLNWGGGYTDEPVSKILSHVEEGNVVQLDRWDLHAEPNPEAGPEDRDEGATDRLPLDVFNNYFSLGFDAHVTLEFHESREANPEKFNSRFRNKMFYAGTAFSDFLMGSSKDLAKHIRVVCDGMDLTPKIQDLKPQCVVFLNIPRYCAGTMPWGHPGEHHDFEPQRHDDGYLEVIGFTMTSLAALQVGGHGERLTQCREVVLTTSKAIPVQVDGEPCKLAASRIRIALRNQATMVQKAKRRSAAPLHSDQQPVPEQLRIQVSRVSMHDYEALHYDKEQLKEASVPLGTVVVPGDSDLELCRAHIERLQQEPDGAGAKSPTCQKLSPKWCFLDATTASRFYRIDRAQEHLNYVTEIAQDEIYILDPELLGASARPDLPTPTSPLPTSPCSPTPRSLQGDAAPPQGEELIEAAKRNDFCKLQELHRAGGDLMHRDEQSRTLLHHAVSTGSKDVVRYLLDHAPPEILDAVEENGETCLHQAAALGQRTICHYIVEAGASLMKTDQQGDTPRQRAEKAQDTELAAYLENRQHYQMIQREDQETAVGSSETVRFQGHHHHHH

Compound	IC50 (human DGKζ; [2]) [nM]	IC50 (human DGKα; [3]) [nM]	IC50 (human DGKζ; [5]) [nM]	IC50 (human DGKα; [6]) [nM]	EC50 [1, 7] [nM]	EC50 [1, 4] [nM]	EC50 [1, 8] [nM]
CC[C@H]1CN(C(C)c2ccc(C(=O)OC)cc2)[C@H](CC)CN1c1nc(=O)n(C)c2ccc(C#N)nc12 (stereo partly drawn) [Example 265, methyl 4-(1-((2R,5S)-4-(6-cyano-1-methyl-2-oxo-1,2-dihydropyrido[3,2-d]pyrimidin-4-yl)-2,5-diethylpiperazin-1-yl)ethyl)benzoate]	370	790				1590	
CCC(c1ccc(OCC2CC2)cc1)N1C[C@H](CC)N(c2nc(=O)n(C)c3ccc(C#N)nc23)C[C@H]1CC (stereo partly drawn) [Example 217, 4-((2S,5R)-4-(1-(4-(cyclopropylmethoxy)phenyl)propyl)-2,5-diethylpiperazin-1-yl)-1-methyl-2-oxo-1,2-dihydropyrido[3,2-d]pyrimidine-6-carbonitrile]	4260	1660				870	
CC[C@H]1CN(C(C)c2ccc(C)nc2)[C@H](CC)CN1c1nc(=O)n(C)c2ccc(C#N)nc12 (stereo partly drawn) [Example 229, 4-((2S,5R)-2,5-diethyl-4-(1-(6-methylpyridin-3-yl)ethyl)piperazin-1-yl)-1-methyl-2-oxo-1,2-dihydropyrido[3,2-d]pyrimidine-6-carbonitrile]	3560	680				1610	
CCC(c1ccc(C#N)cc1)N1C[C@H](CC)N(c2nc(=O)n(C)c3ccc(C#N)nc23)C[C@H]1CC (stereo partly drawn) [Example 221, 4-((2S,5R)-4-(1-(4-cyanophenyl)propyl)-2,5-diethylpiperazin-1-yl)-1-methyl-2-oxo-1,2-dihydropyrido[3,2-d] pyrimidine-6-carbonitrile]	250	2				480	
CCC(c1ccc(C)cc1)N1C[C@H](CC)N(c2nc(=O)n(C)c3ccc(C#N)nc23)C[C@H]1CC (stereo partly drawn) [Example 237, 4-((2S,5R)-2,5-diethyl-4-(1-(p-tolyl)propyl)piperazin-1-yl)-1-methyl-2-oxo-1,2-dihydropyrido[3,2-d]pyrimidine-6-carbonitrile]	3960	53				1430	
CC[C@@H]1CN(c2nc(=O)n(C)c3ccc(C#N)nc23)[C@@H](CC)CN1Cc1ccc(C(F)(F)F)cc1F [Example 204, 4-((2S,5R)-2,5-diethyl-4-(2-fluoro-4-(trifluoromethyl)benzyl)piperazin-1-yl)-1-methyl-2-oxo-1,2-dihydropyrido[3,2-d]pyrimidine-6-carbonitrile]	1410	120					410
CCC(c1ccc(C2CC2)cc1)N1C[C@H](CC)N(c2nc(=O)n(C)c3ccc(C#N)nc23)C[C@H]1CC (stereo partly drawn) [Example 201, 4-((2S,5R)-4-(1-(4-cyclopropylphenyl)propyl)-2,5-diethylpiperazin-1-yl)-1-methyl-2-oxo-1,2-dihydropyrido[3,2-d]pyrimidine-6-carbonitrile]	900	160					230
CCC(c1ccc(OC)cc1)N1C[C@H](CC)N(c2nc(=O)n(C)c3ccc(C#N)nc23)C[C@H]1CC (stereo partly drawn) [Example 213, 4-((2S,5R)-2,5-diethyl-4-(1-(4-methoxyphenyl)propyl)piperazin-1-yl)-1-methyl-2-oxo-1,2-dihydropyrido[3,2-d]pyrimidine-6-carbonitrile]	950	59				190	
CC[C@H]1CN(C(C)c2cnc(C(F)(F)F)nc2)[C@H](CC)CN1c1nc(=O)n(C)c2ccc(C#N)nc12 (stereo partly drawn) [Example 227, 4-((2S,5R)-2,5-diethyl-4-(1-(2-(trifluoromethyl)pyrimidin-5-yl)ethyl)piperazin-1-yl)-1-methyl-2-oxo-1,2-dihydropyrido[3,2-d]pyrimidine-6-carbonitrile]	1790	2450				640	
CCC(c1ccc(CN2CCOCC2)cc1)N1C[C@H](CC)N(c2nc(=O)n(C)c3ccc(C#N)nc23)C[C@H]1CC (stereo partly drawn) [Example 268, 4-((2S,5R)-2,5-diethyl-4-(1-(4-(morpholinomethyl)phenyl)propyl)piperazin-1-yl)-1-methyl-2-oxo-1,2-dihydropyrido[3,2-d]pyrimidine-6-carbonitrile]	4060	340				1000	
CCC(c1ccc(OC(F)F)cc1F)N1C[C@H](CC)N(c2nc(=O)n(C)c3ccc(C#N)nc23)C[C@H]1CC (stereo partly drawn) [Example 233, 4-((2S,5R)-4-(1-(4-(difluoromethoxy)-2-fluorophenyl)propyl)-2,5-diethylpiperazin-1-yl)-1-methyl-2-oxo-1,2-dihydropyrido[3,2-d]pyrimidine-6-carbonitrile]	950	170				2770	
[2H]C([2H])([2H])Oc1ccc(C(CC)N2C[C@H](CC)N(c3nc(=O)n(C)c4ccc(C#N)nc34)C[C@H]2CC)cc1 (single isomer, unassigned) [Example 208]	78	25				17	
CCC(c1ccc(Cl)cc1F)N1C[C@H](CC)N(c2nc(=O)n(C)c3ccc(C#N)nc23)C[C@H]1CC (stereo partly drawn) [Example 238, 4-((2S,5R)-4-(1-(4-chloro-2-fluorophenyl)propyl)-2,5-diethylpiperazin-1-yl)-1-methyl-2-oxo-1,2-dihydropyrido[3,2-d]pyrimidine-6-carbonitrile]	110	15				23	
CC[C@H]1CN(C(C)c2ccc(CO)cc2)[C@H](CC)CN1c1nc(=O)n(C)c2ccc(C#N)nc12 (stereo partly drawn) [Example 270, 4-((2S,5R)-2,5-Diethyl-4-(1-(4-(hydroxymethyl)phenyl)ethyl)piperazin-1-yl)-1-methyl-2-oxo-1,2-dihydropyrido[3,2-d]pyrimidine-6-carbonitrile]	2320	8				1390	
CC[C@H]1CN(C(C)c2ccc3oc(=O)n(C)c3c2)[C@H](CC)CN1c1nc(=O)n(C)c2ccc(C#N)nc12 (stereo partly drawn) [Example 203, 4-((2S,5R)-2,5-diethyl-4-(1-(3-methyl-2-oxo-2,3-dihydrobenzo[d]oxazol-5-yl)ethyl)piperazin-1-yl)-1-methyl-2-oxo-1,2-dihydropyrido[3,2-d]pyrimidine-6-carbonitrile]	2710	780				2210	
CCC(c1ccc(OCC2CC2)cc1F)N1C[C@H](CC)N(c2nc(=O)n(C)c3ccc(C#N)nc23)C[C@H]1CC (stereo partly drawn) [Example 198, 4-((2S,5R)-4-(1-(4-(cyclopropylmethoxy)-2-fluorophenyl)propyl)-2,5-diethylpiperazin-1-yl)-1-methyl-2-oxo-1,2-dihydropyrido[3,2-d]pyrimidine-6-carbonitrile]	38	37				15	

Second part, led by results:

IC50 (human DGKζ; [2]) [nM]	IC50 (human DGKα; [3]) [nM]	IC50 (human DGKζ; [5]) [nM]	IC50 (human DGKα; [6]) [nM]	EC50 [1, 7] [nM]	Compound	EC50 [1, 4] [nM]	EC50 [1, 8] [nM]
		850	350	1480	CCC(c1ccc(OCC2CC2)cc1)N1C[C@H](C)N(c2nc(=O)n(C)c3ccc(C#N)nc23)C[C@H]1CC (stereo partly drawn) [Example 309, 4-((2S,5R)-4-(1-(4-(cyclopropylmethoxy)phenyl)propyl)-5-ethyl-2-methylpiperazin-1-yl)-1-methyl-2-oxo-1,2-dihydropyrido[3,2-d]pyrimidine-6-carbonitrile]		
380	480				CC[C@@H]1CN(c2nc(=O)n(C)c3ccc(C#N)nc23)[C@@H](C)CN1C(C)c1ccc2oc(=O)n(C)c2c1 (stereo partly drawn) [Example 298, 4-((2S,5R)-5-ethyl-2-methyl-4-(1-(3-methyl-2-oxo-2,3-dihydrobenzo[d]oxazol-5-yl)ethyl)piperazin-1-yl)-1-methyl-2-oxo-1,2-dihydropyrido[3,2-d]pyrimidine-6-carbonitrile]	420	
1380	120				CC[C@H]1CN(C(C)c2ccc(CN3CCOC(C)(C)C3)cc2)[C@H](CC)CN1c1nc(=O)n(C)c2ccc(C#N)nc12 (stereo partly drawn) [Example 276, 4-((2S,5R)-4-(1-(4-((2,2-dimethylmorpholino)methyl)phenyl)ethyl)-2,5-diethylpiperazin-1-yl)-1-methyl-2-oxo-1,2-dihydropyrido[3,2-d]pyrimidine-6-carbonitrile]	3560	
		590	61	3090	CC[C@H]1CN(C(C)c2nc(C3CC3)no2)[C@H](CC)CN1c1nc(=O)n(C)c2ccc(C#N)nc12 (stereo partly drawn) [Example 362, 4-((2S,5R)-4-(1-(3-cyclopropyl-1,2,4-oxadiazol-5-yl)ethyl)-2,5-diethylpiperazin-1-yl)-1-methyl-2-oxo-1,2-dihydropyrido[3,2-d]pyrimidine-6-carbonitrile]		
174000	16000				CC[C@H]1CN(C(C)c2ccc(CN3CCC(OC)CC3)cc2)[C@H](CC)CN1c1nc(=O)n(C)c2ccc(C#N)nc12 (single isomer, unassigned) [Example 274]	5330	
7330	1000				CC[C@H]1CN(C(C)c2ccc(CN3CCC(OC)CC3)cc2)[C@H](CC)CN1c1nc(=O)n(C)c2ccc(C#N)nc12 (single isomer, unassigned) [Example 273]	420	
		250000	12200	20000	CCC(c1ccc(C(F)(F)F)cc1)N1C[C@H](CC)N(c2nc(=O)n(C)c3ccc(OC)nc23)C[C@H]1CC (stereo partly drawn) [Example 436, 4-((2S,5R)-2,5-diethyl-4-(1-(4-(trifluoromethyl)phenyl)propyl)piperazin-1-yl)-6-methoxy-1-methylpyrido[3,2-d]pyrimidin-2(1H)-one]		
